Data on four compounds can be found in patent publication US6107317A, “N-(substituted glycyl)-thiazolidines, pharmaceutical compositions containing them and their use in inhibiting dipeptidyl peptidase-IV” (Novartis AG, priority 1999, dated 2000).

Structures can show the parent of a compound that is named as a salt.

Data set [1] has as its target T1, rat plasma DPP-IV (Rattus norvegicus, UniProt P14740).
T1 construct: DPP-IV activity in human and rat plasma; from tissue; host or cells: rat plasma
As to the kind of experiment: DPP-IV activity in rat plasma. The conditions noted are these: substrate H-Glycine-Proline-AMC, pH 7.8, room temperature, 20 min. It counts as biochemical. Here is the method: (§1) Briefly, five μl of plasma are added to 96-well flat-bottom mictotiter plates (Falcon), followed by the addition of 5 μl of 80 mM MgCl2 in incubation buffer (25 mM HEPES, 140 mM NaCl, 1% RIA-grade BSA, pH 7.8). After a 5 min. incubation at room temperature, the reaction is initiated by the addition of 10 μl of incubation buffer containing 0.1 mM substrate (H-Glycine-Proline-AMC; AMC is 7-amino-4-methylcoumarin). The plates are covered with aluminum foil (or kept in the dark) and incubated at room temperature for 20 min. […] A fluorescence-concentration curve of free AMC is generated using 0-50 μM solutions of AMC in assay buffer. The curve generated is linear and is used for interpolation of substrate consumption (catalytic activity in nmoles substrate cleaved/min). As with the previous assay, the potency of the test compounds as DPP-IV inhibitors, expressed as IC50, is calculated from 8-point, dose-response curves using a 4 parameter logistic function.

Data set [2] concerns the target T2, DPP-IV (Homo sapiens, UniProt P27487).
T2 construct: host or cells: Caco-2, differentiated to induce DPP-IV expression; cell extract solubilized in 0.5% nonidet-P40
As to the kind of experiment: Caco-2 DPP-IV Assay (inhibition of DPP-IV activity from human colonic carcinoma cell extracts). In kind it is biochemical. The conditions noted are these: solubilized Caco-2 protein 20 μg; substrate H-Alanine-Proline-pNA; pH 7.4; room temperature, 10 minutes. Here is the method:
The human colonic carcinoma cell line Caco-2 was obtained from the American Type Culture Collection (ATCC HTB 37). Differentiation of the cells to induce DPP-IV expression was accomplished as described by Reisher, et al. in an article entitled "Increased expression of . . . intestinal cell line Caco-2" in Proc. Natl. Acad. Sci., Vol. 90, pgs. […] Cell extract is prepared from cells solubilized in 10 mM Tris-HCl, 0.15 M NaCl, 0.04 t.i.u. aprotinin, 0.5% nonidet-P40, pH 8.0, which is centrifuged at 35,000 g for 30 min. at 4° C. to remove cell debris. The assay is conducted by adding 20 μg solubilized Caco-2 protein, diluted to a final volume of 125 μl in assay buffer (25 mM Tris-HCl pH 7.4, 140 mM NaCl, 10 mM KCl, 1% bovine serum albumin) to microtiter plate wells. The reaction is initiated by adding 25μl of 1 mM substrate (H-Alanine-Proline-pNA; pNA is p-nitroaniline). The reaction is run at room temperature for 10 minutes after which time a 19 μl volume of 25% glacial acetic acid is added to stop the reaction. […] A standard curve of free p-nitroaniline is generated using 0-500 μM solutions of free pNA in assay buffer. The curve generated is linear and is used for interpolation of substrate consumption (catalytic activity in nmoles substrate cleaved/min). […] The potency of the test compounds as DPP-IV inhibitors, expressed as IC50, is calculated from 8-point, dose-response curves using a 4-parameter logistic function.

Data set [3] addresses T3, human plasma DPP-IV (Homo sapiens, UniProt P27487).
T3 construct: DPP-IV activity in human and rat plasma; from tissue; host or cells: human plasma
Put plainly: DPP-IV activity in human plasma. It counts as biochemical. The settings on record: substrate H-Glycine-Proline-AMC, pH 7.8, room temperature, 20 min. Here is the method: as §1

The conditions of data set [4]: diabetic and non-diabetic subjects, Diabetes, Vol. 44, pgs. 1126-1131; cited from earlier work.

Usually IC50 stands for the concentration at which inhibition is half-maximal. The low end stands for greater potency, the high end for weaker potency.

T1 sequence (P14740 37-767 limits assumed): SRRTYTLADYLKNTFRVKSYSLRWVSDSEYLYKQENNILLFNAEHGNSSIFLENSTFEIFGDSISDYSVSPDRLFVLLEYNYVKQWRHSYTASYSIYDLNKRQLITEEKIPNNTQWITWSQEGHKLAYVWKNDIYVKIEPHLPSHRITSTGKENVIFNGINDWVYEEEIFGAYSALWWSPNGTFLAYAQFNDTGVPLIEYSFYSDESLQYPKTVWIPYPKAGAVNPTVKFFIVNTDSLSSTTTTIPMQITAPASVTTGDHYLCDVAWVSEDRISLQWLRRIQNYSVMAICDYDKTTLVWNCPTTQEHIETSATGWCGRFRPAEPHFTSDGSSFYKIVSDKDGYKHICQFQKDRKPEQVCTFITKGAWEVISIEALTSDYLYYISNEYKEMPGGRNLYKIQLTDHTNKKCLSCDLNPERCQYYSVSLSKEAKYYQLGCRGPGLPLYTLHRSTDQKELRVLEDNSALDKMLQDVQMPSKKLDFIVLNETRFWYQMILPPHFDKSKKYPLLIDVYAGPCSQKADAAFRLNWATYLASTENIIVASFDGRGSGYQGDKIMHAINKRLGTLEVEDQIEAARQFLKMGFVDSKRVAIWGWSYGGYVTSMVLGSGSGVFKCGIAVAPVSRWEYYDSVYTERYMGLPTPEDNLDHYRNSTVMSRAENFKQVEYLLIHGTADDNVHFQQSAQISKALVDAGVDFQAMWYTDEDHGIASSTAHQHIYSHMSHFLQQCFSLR
T2 sequence (P27487 whole entry): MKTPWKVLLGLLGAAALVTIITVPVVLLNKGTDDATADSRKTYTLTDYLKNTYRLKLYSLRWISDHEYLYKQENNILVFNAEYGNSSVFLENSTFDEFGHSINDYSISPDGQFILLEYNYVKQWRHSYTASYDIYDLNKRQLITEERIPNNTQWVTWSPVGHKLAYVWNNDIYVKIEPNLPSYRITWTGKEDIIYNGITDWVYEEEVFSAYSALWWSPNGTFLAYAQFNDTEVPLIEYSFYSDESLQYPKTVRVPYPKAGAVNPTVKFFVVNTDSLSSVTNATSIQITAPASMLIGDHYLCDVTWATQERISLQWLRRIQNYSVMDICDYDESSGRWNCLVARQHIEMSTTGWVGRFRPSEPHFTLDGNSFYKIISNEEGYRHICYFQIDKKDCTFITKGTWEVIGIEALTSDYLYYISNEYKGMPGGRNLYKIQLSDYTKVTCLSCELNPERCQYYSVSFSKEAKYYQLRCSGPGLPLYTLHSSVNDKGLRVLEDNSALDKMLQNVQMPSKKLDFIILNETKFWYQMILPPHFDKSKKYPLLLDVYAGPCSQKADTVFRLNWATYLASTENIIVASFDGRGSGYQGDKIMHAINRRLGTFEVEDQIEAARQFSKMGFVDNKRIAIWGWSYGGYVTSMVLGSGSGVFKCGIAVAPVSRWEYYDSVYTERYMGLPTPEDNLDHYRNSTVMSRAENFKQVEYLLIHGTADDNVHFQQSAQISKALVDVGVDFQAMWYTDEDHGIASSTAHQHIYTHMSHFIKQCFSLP
T3 sequence (P27487 39-766 limits assumed): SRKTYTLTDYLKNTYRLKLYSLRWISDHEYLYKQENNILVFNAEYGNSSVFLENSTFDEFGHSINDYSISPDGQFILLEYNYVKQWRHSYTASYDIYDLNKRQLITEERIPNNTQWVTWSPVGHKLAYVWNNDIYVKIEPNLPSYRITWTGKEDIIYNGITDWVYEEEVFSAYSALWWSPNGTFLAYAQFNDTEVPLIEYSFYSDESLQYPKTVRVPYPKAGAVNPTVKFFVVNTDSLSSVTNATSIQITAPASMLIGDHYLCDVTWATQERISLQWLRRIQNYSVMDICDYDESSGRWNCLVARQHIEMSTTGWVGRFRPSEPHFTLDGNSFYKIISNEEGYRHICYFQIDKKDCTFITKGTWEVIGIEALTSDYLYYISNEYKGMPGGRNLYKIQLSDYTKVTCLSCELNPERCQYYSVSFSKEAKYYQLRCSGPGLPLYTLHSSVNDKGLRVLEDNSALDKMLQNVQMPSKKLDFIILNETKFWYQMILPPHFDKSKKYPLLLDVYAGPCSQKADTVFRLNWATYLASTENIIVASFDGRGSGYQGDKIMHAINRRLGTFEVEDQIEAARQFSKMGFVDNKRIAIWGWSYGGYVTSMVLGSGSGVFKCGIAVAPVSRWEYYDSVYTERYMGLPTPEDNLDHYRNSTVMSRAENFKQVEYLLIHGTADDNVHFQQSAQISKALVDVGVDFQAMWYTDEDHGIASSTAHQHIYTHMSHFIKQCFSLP

Regarding `O=C(CNCCNc1ccccn1)N1CCSC1` [Ex. 1, 1-[2-[(pyridin-2-yl)amino]ethylamino]acetylthiazolidine dihydrochloride], the IC50 in data set [1] is 10.5 µM; in data set [2], 10.3 µM; in data set [3], 6.8 µM.
On to `O=C(CNC1(CO)CCCC1)N1CCSC1` [Ex. 2, 1-[(1-hydroxymethylcyclopent-1-yl)amino]acetylthiazolidine hydrochloride], for which the IC50 stood at 3.3 µM in data set [1], 25.3 µM in data set [2] and 5.7 µM in data set [3].
On to `O=C(CNCCNc1ccc(Cl)cn1)N1CCSC1` [Ex. 4, 1-[2-[(5-chloropyridin-2-yl)amino]ethylamino]acetylthiazolidine], for which the IC50 amounted to 7.1 µM in data set [1], 31.1 µM in data set [2] and 21 µM in data set [3].
On to GLP-I amide: GLP-I amide, for which the “degradation when administered by subcutaneous or intravenous routes” value in data set [4] is on record as “rapidly degraded”.
